Data taken from patent publication US20050059745A1, “Antiviral therapy” (priority 1999, published 2005).

Key:
[1] = tested on: HIV-1; conditions: Table 3
Protocol: MDM, and PBMC, were incubated with HIV at a multiplicity of infection of 0.02, and 0.006 or 0.001, respectively. After two hours cells are washed to remove unbound virus and cultured for 4 to 7 days in different concentrations of the drug under investigation. On day 4, 5 and 7, 0.01 ml of supernatant is removed from the culture and virus in culture supernatant is inactivated in a final concentration of 0.05% empigen (Calbiochem-Novabiochem Co., La Jolla, Calif.). The presence of HIV-1 in the inactivated supernatant is monitored by checking for the p24-core antigen using the enzyme-linked immunosorbent assay (ELISA) system of John Moore.

[2] = Toxicity determinations of anti-viral compounds (Table 3); format: cell-based
[3] = tested on: HIV-1Ba-L; assay: HIV-1Ba-L replication in acutely infected monocyte-derived macrophages, p24 ELISA; format: cell-based; conditions: 30 μM APHS, acutely infected MDM, moi 0.02
Protocol: Concentrations above 0.3 μM APHS inhibit p24 production. 30 μM APHS inhibits HIV-1 replication by 88%.
Cells are washed twice and monocytes are purified by countercurrent centrifugal elutriation.

[4] = tested on: HIV-1BaL; assay: HIV-1BaL replication in acutely infected PHA-stimulated PBMC, p24 ELISA; format: cell-based
Protocol: (§1) FIG. 4—Peripheral blood mononuclear cells (PBMC) were isolated from heparinized blood from HIV-1-, HIV-2-, and hepatitis B-seronegative donors and obtained on Ficoll-Hypaque density gradients. Cells were washed twice, stimulated with 5 mg/ml phytohemagglutinin (PHA), and cultured in RPMI-1640 medium supplemented with 5 mM Hepes, 19 mM sodium bicarbonate, 10 mg/mL gentamycin, and 10% heat-inactivated fetal calf serum at a concentration of 2×10^6 cells/ml. After 3 days of incubation stimulated PBMC were recovered from the flasks and infected for 2 hours with (a) HIV-1AT at a multiplicity of infection of 0.001, (b) HIV-1BaL at a multiplicity of infection of 0.006 and (c) HIV-1BaL or HIV-1AT at a multiplicity of infection of 0.01 or 0.001, respectively. HIV-infected and mock-infected PBMC were washed twice to remove unbound virus and cultured for 4 to 7 days in different concentrations of APHS. After 4 and 5 days of incubation samples of culture supernatant were collected and p24-core antigen production was quantified using the enzyme-linked immunosorbent assay (ELISA) system of John Moore.
Peripheral blood mononuclear cell (PBMC) fractions are isolated from heparinised blood from HIV-1-, HIV-2- and hepatitis B- seronegative donors (Blood-bank, Utrecht, the Netherlands) by Ficoll-Isopaque gradient separation. Cells are washed twice, stimulated with 4 μg/ml phytohemagglutinin (PHA), and cultured in RPMI-1640 medium supplemented with 5 mM Hepes, 19 mM sodium bicarbonate, 10 μg/ml gentamycin, and 10% heat-inactivated fetal calf serum at a concentration of 1×10^6 cells/ml.
(A, B) Peripheral blood mononuclear cells (PBMC) were isolated from heparinized blood from HIV-1-, HIV-2-, and hepatitis B- seronegative donors and obtained on Ficoll-Hypaque density gradients. […] After 2 days of incubation samples of culture supernatant were collected. p24-core antigen production was quantified using the enzyme-linked immunosorbent assay (ELISA) system of John Moore.

[5] = tested on: PBMC; assay: PBMC viability, WST-1 cytotoxicity assay; format: cell-based, human; conditions: 5 days incubation
Protocol: FIG. 5—PBMC were obtained and stimulated as described in legend of FIG. 4. […] After a 5 days incubation period, cellular viability was assessed by WST-1 cytotoxicity assay where viable cells convert WST-1 into a coloured formazan dye that can be measured spectrophotometrically.
Cell viability is assessed with WST-1 assay. Cells are incubated with the tetrazolium salt WST-1 (4-[3-(4-lodophenyl)-2-(4-nitrophenyl)-2H-5-tetrazolio]-1,3-benzene disulfonate) for 2 hours at 37° C. During this time viable cells convert WST-1 into water-soluble formazan dyes. The OD of the supernatant is measured at 550 nm.

[6] = tested on: monocyte-derived macrophages (MDM); assay: MDM viability, MTT cytotoxicity assay; format: cell-based, human; conditions: 4 day incubation
Protocol: FIG. 3—Monocyte-derived macrophages (MDM) were obtained like described in legend of FIG. 2. […] After a 4 day incubation period, cellular viability was assessed by MTT cytotoxicity assay where viable cells convert MTT into a colored formazan dye that can be measured spectrophotometrically.
Cell viability is assessed by the MTT assay. In short, cells are incubated with MTT 3-(4,5-dimethylthiazol-2-yl)-2,5-diphenyltetrazollumbromide (Sigma) for 2 hours at 37° C. During this time viable cells convert MTT into […] formazan dyes. Afterwards crystals are solubilized with a solution containing isopropanol. The OD of the supernatant is measured at 550 nm.
Monocyte-derived macrophages (MDM) were obtained like described above. […] After a 4 days incubation period cellular viability was assessed by MTT cytotoxicity assay where viable cells convert MTT into a colored formazan dye that can be measured spectrophotometrically.

[7] = tested on: HIV-1Ba-L; assay: HIV-1 production of chronically infected PBMC, p24 ELISA; format: cell-based; conditions: APHS added 5 days after infection, 2 days incubation (FIG. 6B)
Protocol: (A, B) Peripheral blood mononuclear cells (PBMC) were isolated from heparinized blood from HIV-1-, HIV-2-, and hepatitis B- seronegative donors and obtained on Ficoll-Hypaque density gradients. Cells were washed twice, stimulated with 5 μg/ml phytohemagglutinin (PHA), and cultured in RPMI-1640 medium supplemented with 5 mM Hepes, 19 mM sodium bicarbonate, 10 μg/mL gentamycin, and 10% heat-inactivated fetal calf serum (PBMC culture medium) at a concentration of 2×10^6 cells/ml. After 3 days of incubation stimulated PBMC were recovered from the flasks and infected for 2 hours with HIV-1Ba-L at a multiplicity of infection of 0.01. Afterwards, HIV-infected and mock-infected PBMC were washed twice to remove unbound virus. (A) PBMC were cultured at a density of 6×10^5 cells/well with different concentrations of APHS and after 5 days of incubation samples of culture supernatant were collected. (B) PBMC were cultured in suspension at a concentration of 2×10^6 cells/ml in Teflon flasks in PBMC culture medium. […] After 2 days of incubation samples of culture supernatant were collected. p24-core antigen production was quantified using the enzyme-linked immunosorbent assay (ELISA) system of John Moore. […]

[8] = tested on: HIV-1Ba-L; assay: HIV-1 production by chronically infected MDM, p24 ELISA; format: cell-based; conditions: APHS added 5 days after infection, 2 days incubation (FIG. 6D)
[9] = tested on: HIV-1; conditions: PBMC, FIG. 4
Protocol: as §1

[10] = tested on: drug-resistant HIV strains; conditions: drug-resistant vs sensitive strain

Row | Compound | IC50 [1] | not toxic at [2] | inhibition of HIV-1 replication [3] | inhibition of HIV-1BaL production ([4]; 1 μM APHS, PBMC, lower infectivity (FIG. 4c)) | inhibition of HIV-1Ba-L replication ([4]; 30 μM APHS, acutely infected PBMC, moi 0.01 (FIG. 6A)) | inhibition of HIV-1BaL replication ([4]; PBMC, FIG. 4) | APHS concentrations that inhibit HIV-1Ba-L replication ([4]; acutely infected PBMC, moi 0.01, 5 days (FIG. 6A)) | concentrations found to reduce viability (WST-1) [5] | cytotoxicity (MTT) [6] | inhibition of HIV-1 production of chronically infected PBMCs [7] | inhibition of HIV-1 production by chronically infected MDM [8] | APHS concentrations that inhibit HIV-1 production [9] | inhibitory activity against drug resistant strains relative to a sensitive strain [10]
1 | CCCCC#CCSc1ccccc1OCCCC [BPHS] | 40 µM | 30 µM |  |  |  |  |  |  |  |  |  |  | 
2 | CCCCC#CCSc1ccccc1OC(C)=O [APHS, o-(acetoxy-phenyl)hept-2-ynyl sulfide] | 10 µM | 30 µM | 88% | 50% | 100% | 100% | above 3 μM | ≥ 100 µM | None of the tested concentrations of APHS was found to be cytotoxic | does not inhibit | does not inhibit | above 1 μM | two- to four-fold higher
